What was measured:
[1] = target: T1, PLXDC2 (Homo sapiens, UniProt Q6UX71); assay: Gfi1b promotor luciferase receptor activation assay, PLXDC2-expressing cells (FIG. 18B); type: cell-based; conditions: compound treatments 1 day
T1 construct: host or cells: PLXDC2-expressing cells
From the text: (§1) FIG. 18A-B show activation of PLXDC1 and PLXDC2 by small molecules. […] All compound treatments were done for 1 day. Basal promotor activity of the PLXDC1-expressing cells is defined as 1.
(§2) By linking its promotor to a luciferase reporter gene, this example developed a PLXDC1 receptor activation assay.

[2] = test system: tumor blood vessels; assay: Tumor animal model, bolus IV injection (FIG. 23-26); type: in vivo, mice; conditions: bolus IV injection at day 0
From the text: Treatment was done at day 0 by bolus IV injection. A. Raw data of tumor growth curves of the mice in the control group. B. Raw data of tumor growth curves of the mice in the treatment group. C. Comparison of the combined growth data of the control group and the treatment group.
Pictures of the whole animals in the experiment described in FIG. 11 show tumor morphological and color changes on day 1 and day 3. Treatment was done at day 0. Tumors in the treatment groups becomes darker in color on day 1 due to the destruction of tumor blood vessels and accumulation of blood in the tumors. Tumors in the treatment groups start to become yellower in color on day 3, consistent with the onset of tumor necrosis due to the lack of tumor blood vessels.
FIG. 25A-B show tumor morphological changes on live animals due to the treatment by PLXDC1-activating compound. Pictures of the whole animals in the experiment described in FIG. 11 show tumor morphological and color changes on day 7. Treatment was done at day 0. While the tumors in the control group have grown to large sizes, tumors in the treatment groups have highly shrunk in size and become yellow in color.
FIG. 26A-B show morphological changes of dissected tumors due to the treatment by PLXDC1-activating compound. Pictures of the dissected tumors in the experiment described in FIG. 11 show tumor morphological and color changes on day 7. […]

[3] = test system: pathogenic blood vessels; assay: Ischemia-induced retinopathy in vivo (FIG. 22); design: species or system mice; conditions: subcutaneous injection during return to room air; n=10 retinas
From the text: A. Upper graph: Schematic diagram of the experimental design for ischemia-induced retinopathy. The high oxygen environment caused blood vessel loss (vaso-obliteration). In room air, loss of vessels triggered abnormal angiogenesis that generated pathogenic blood vessels on the top of the retina (marked in yellow in D). Treatment was applied during the return to room air by subcutaneous injection. Lower graph: quantitation of healthy blood vessels, vaso-obliteration and pathogenic blood vessels between the control (n=10) and treated retinas (n=10). […] B. Representative images of flat-mounted control retinas (upper two images) and retinas from compound treated mice (lower two images). Red signal is blood vessel marker. C. The same retinas in B with vaso-obliteration areas marked in white color. These images illustrate that compound-treated retinas went through vaso-obliteration like the control retinas. D. The same retinas in B with pathogenic blood vessels marked in yellow color.
FIG. 22A includes a schematic diagram of the experimental design for ischemia-induced retinopathy. The high oxygen environment caused blood vessel loss (vaso-obliteration). In room air, loss of vessels triggered abnormal angiogenesis that generated pathogenic blood vessels on the top of the retina (marked in yellow in FIG. 22D). Treatment was applied during the return to room air by subcutaneous injection. […]

[4] = target: T2, PLXDC1 (Homo sapiens, UniProt Q8IUK5); assay: Gfi1b promotor luciferase receptor activation assay, PLXDC1-expressing cells (FIG. 18A, 19); type: cell-based; conditions: compound treatments 1 day; basal activity defined as 1
T2 construct: expressed in transfected cells
T2 sequence (Q8IUK5 19-500): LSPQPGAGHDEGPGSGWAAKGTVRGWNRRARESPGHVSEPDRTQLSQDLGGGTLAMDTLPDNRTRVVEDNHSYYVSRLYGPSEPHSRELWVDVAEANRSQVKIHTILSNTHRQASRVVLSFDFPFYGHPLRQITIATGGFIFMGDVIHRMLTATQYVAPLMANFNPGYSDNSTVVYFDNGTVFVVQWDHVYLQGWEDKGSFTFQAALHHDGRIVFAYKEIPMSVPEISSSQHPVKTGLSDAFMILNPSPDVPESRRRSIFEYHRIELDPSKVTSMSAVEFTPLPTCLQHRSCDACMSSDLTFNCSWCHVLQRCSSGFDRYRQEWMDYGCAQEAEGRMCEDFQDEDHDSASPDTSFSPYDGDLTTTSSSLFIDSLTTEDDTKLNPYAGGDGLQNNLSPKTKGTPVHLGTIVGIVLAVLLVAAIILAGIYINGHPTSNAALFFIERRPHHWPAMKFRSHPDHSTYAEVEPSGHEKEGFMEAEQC
From the text: as §1
Basal promotor activity of the PLXDC1-expressing cells is defined as 1. The basal activity of PLXDC1-expressing cells (Control) are higher than cells without PLXDC1, consistent promotor activation by the ectopic expression of the receptor without ligands.
as §2

T1 sequence (Q6UX71 31-529): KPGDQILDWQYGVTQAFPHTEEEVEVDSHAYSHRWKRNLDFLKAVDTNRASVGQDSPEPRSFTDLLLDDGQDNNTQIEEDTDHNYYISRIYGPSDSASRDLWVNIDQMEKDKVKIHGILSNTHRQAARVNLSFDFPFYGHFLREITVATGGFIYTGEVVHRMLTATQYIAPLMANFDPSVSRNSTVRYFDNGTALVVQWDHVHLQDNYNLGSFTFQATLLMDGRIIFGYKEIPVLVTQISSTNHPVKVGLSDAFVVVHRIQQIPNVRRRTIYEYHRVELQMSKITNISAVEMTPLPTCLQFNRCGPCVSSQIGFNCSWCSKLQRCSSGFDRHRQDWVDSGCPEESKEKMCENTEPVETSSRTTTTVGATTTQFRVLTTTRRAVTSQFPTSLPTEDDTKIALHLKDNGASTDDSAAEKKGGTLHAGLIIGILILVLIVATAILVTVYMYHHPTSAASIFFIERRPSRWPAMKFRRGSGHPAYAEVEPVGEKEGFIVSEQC

SMILES: CCCCCCCCCCCCCCOc1ccc(S(=O)(=O)c2cnc3ccc([S+](C)[O-])cc3c2N2CCC(N3CCC(N4CCN(C)CC4)CC3)CC2)cc1 (centres unmarked) [Compound 346]
- Gfi1b promotor activity in PLXDC2-expressing cells [1]: activated the promotor activity in PLXDC2-expressing cells
- Tumor growth / shrinkage [2]: shrank the tumors significantly
- Healthy blood vessels [3]: improving the amount of healthy blood vessels
- Pathogenic blood vessels [3]: highly suppressed pathogenic blood vessels
- Gfi1b promotor activity in PLXDC1-expressing cells [4]: highly activated the promotor activity

— patent US20250230226A1, “PLXDC1/PLXDC2 ACTIVATORS AND THEIR USE IN THE TREATMENT OF BLOOD VESSEL DISORDERS” (THE REGENTS OF THE UNIVERSITY OF CALIFORNIA, priority 2019, published 2025)
